Experimental data: ChEMBL document CHEMBL5523748, “Targeting Myeloperoxidase Ameliorates Gouty Arthritis: A Virtual Screening Success Story” (J Med Chem, 2024)
Active and inactive are the calls of the source. The calls are words filed in the database; no cut-off is given here.

How the values were obtained:
[1] = target: T1, Myeloperoxidase (Homo sapiens) (UniProt P05164); assay: Inhibition of human leukocyte MPO chlorinating activity using hydrogen peroxide as substrate at 20 uM preincubated for 15 mins followed by substrate addition and measured after 8 mins relative to control; conditions: time 23.0 min
T1 sequence (whole entry): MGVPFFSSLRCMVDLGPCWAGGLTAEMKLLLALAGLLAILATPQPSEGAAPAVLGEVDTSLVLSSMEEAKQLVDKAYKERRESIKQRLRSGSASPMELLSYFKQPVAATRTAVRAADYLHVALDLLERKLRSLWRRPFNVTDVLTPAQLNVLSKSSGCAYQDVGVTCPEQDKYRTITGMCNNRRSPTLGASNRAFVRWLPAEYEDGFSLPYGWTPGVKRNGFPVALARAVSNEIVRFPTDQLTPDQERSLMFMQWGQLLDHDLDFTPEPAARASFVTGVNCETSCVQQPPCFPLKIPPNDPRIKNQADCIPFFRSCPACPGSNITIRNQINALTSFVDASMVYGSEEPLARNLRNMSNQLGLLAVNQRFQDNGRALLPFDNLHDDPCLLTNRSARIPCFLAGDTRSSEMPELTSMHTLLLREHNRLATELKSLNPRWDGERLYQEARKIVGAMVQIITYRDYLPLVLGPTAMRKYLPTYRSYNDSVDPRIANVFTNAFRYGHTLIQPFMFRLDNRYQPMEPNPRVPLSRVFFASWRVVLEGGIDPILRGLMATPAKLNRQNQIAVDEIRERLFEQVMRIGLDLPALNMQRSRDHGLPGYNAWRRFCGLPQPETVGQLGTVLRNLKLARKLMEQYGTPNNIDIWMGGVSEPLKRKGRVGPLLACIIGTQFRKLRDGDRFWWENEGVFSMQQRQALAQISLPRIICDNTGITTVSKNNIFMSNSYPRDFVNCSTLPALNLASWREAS

[2] = target: T1, Myeloperoxidase (Homo sapiens); assay: Inhibition of human leukocyte MPO peroxidase activity using hydrogen peroxide as substrate by fluorescence based analysis
[3] = Antioxidant activity assessed as taurine chloramine scavenging activity incubated for 15 mins; type: functional
[4] = tested on: dHL-60; assay: Inhibition of HOCl production in human dHL-60 cells at 20 uM incubated for 1 hrs in presence of PMA; type: functional, cell-based
[5] = tested on: Neutrophil; assay: Inhibition of HOCl production in human neutrophil at 20 uM incubated for 1 hrs in presence of PMA; type: functional, cell-based
[6] = tested on: Mus musculus; assay: Anti-inflammatory activity against MSU-induced gouty arthritis in male C57BL/6 mouse model assessed as prevention of paw edema at 30 mg/kg, ip preadministered with compound for 30 mins followed by MSU administration and measured upto 4 hrs by plethysmometer; type: functional, organism-based
[7] = tested on: Mus musculus; assay: Downregulation of IL-6 level in MSU-induced gouty arthritic male C57BL/6 mouse model at 30 mg/kg, ip preadministered with compound for 30 mins followed by MSU addition and measured after 6 hrs by ELISA; type: functional, organism-based; conditions: time 6.5 hrs
[8] = tested on: Mus musculus; assay: Downregulation of IL-1beta level in MSU-induced gouty arthritic male C57BL/6 mouse model at 30 mg/kg, ip preadministered with compound for 30 mins followed by MSU addition and measured after 6 hrs by ELISA; type: functional, organism-based; conditions: time 6.5 hrs
[9] = tested on: Mus musculus; assay: Reduction in total peroxidase activity in MSU-induced gouty arthritic male C57BL/6 mouse model at 30 mg/kg, ip preadministered with compound for 30 mins followed by MSU addition and measured after 6 hrs; type: functional, organism-based; conditions: time 6.5 hrs
[10] = tested on: Neutrophil; assay: Inhibition of MSU-induced NETosis in human neutrophil assessed as reduction in release of large DNA scaffolds at 20 uM incubated for 90 mins by sytox green staining based fluorescence microscopic analysis; type: functional, cell-based
[11] = tested on: Neutrophil; assay: Inhibition of MSU-induced NETosis in human neutrophil assessed as reduction in nuclear expansion at 20 uM incubated for 90 mins by sytox green staining based fluorescence microscopic analysis; type: functional, cell-based
[12] = tested on: TERT-RPE1; assay: Cytotoxicity against human hTERT-RPE1 cells assessed as reduction in cell viability at 50 uM measured after 72 hrs by XTT assay; type: toxicity, cell-based; conditions: tert-rpe1, 72 h
[13] = tested on: Mus musculus; assay: Anti-inflammatory activity against MSU-induced gouty arthritis in male C57BL/6 mouse model assessed as prevention of paw edema at 3 to 30 mg/kg, ip preadministered with compound for 30 mins followed by MSU administration and measured for 1 to 4 hrs by plethysmometer; type: functional, organism-based; conditions: dose 3-30 mg/kg, time lower 1.5 hrs, time upper […]
[14] = tested on: Mus musculus; assay: Anti-inflammatory activity against MSU-induced gouty arthritis in male C57BL/6 mouse model assessed as prevention of paw edema at 0.3 mg/kg, ip preadministered with compound for 30 mins followed by MSU administration and measured for 4 hrs by plethysmometer; type: functional, organism-based
[15] = Reactivity of the compound in phosphate buffer at pH 7.4 assessed as compound oxidation by measuring decrease in fluorescence spectra in presence of MPO by fluorescence microplate reader; type: physicochemical
[16] = Reactivity of the compound in phosphate buffer at pH 7.4 assessed as compound oxidation by measuring decrease in fluorescence spectra in presence of H2O2 by fluorescence microplate reader; type: physicochemical
[17] = Reactivity of the compound in phosphate buffer at pH 7.4 assessed as compound oxidation by measuring decrease in fluorescence spectra in presence of MPO and chloride by fluorescence microplate reader; type: physicochemical
[18] = Reactivity of the compound in phosphate buffer at pH 7.4 assessed as compound oxidation by measuring decrease in fluorescence spectra in presence of H2O2 and chloride by fluorescence microplate reader; type: physicochemical
[19] = Reactivity with Hypochlorous acid (HOCl) in phosphate buffer at pH 7.4 assessed as fluorescence decay at 20 uM measured within 1 sec by stopped-flow spectrophotometric analysis; type: physicochemical; conditions: pH 7.4, 1 s
[20] = tested on: Mus musculus; assay: Anti-inflammatory activity against MSU-induced gouty arthritis in male C57BL/6 mouse model assessed as prevention of paw edema at 3 to 30 mg/kg, ip preadministered with compound for 30 mins followed by MSU administration and measured upto 4 hrs by plethysmometer; type: functional, organism-based; conditions: dose 3-30 mg/kg
[21] = tested on: Mus musculus; assay: Anti-inflammatory activity against MSU-induced gouty arthritis in male C57BL/6 mouse model assessed as inhibition of paw edema at 34 mg/kg, po preadministered with compound for 1 hrs followed by MSU administration and measured for 6 hrs by plethysmometer; type: functional, organism-based; conditions: time 7.0 hrs
[22] = target: T1, Myeloperoxidase (Homo sapiens); assay: Reversible inhibition of human leukocyte MPO using hydrogen peroxide as substrate assessed as restoration of MPO peroxidase activity at 20 uM incubated for 30 mins and measured after dilution using acetate buffer in presence of TMB
[23] = target: Poly [ADP-ribose] polymerase 1 (Homo sapiens) (UniProt P09874); assay: Inhibition of PARP1-induced ADP-ribosylation in human hTERT-RPE1 cells at 1 to 50 uM preincubated with compound for 1 hrs followed by H2O2 addition and measured after 10 mins; type: cell-based; conditions: dose 1-50 µM, time 70.0 min
[24] = tested on: TERT-RPE1; assay: Cytotoxicity against human hTERT-RPE1 cells assessed as reduction in cell viability at 2 to 50 uM measured after 72 hrs by XTT assay; type: toxicity, cell-based; conditions: tert-rpe1, 72 h, dose 2-50 µM
[25] = tested on: Mus musculus; assay: Anti-inflammatory activity against MSU-induced gouty arthritis in male C57BL/6 mouse model assessed as prevention of paw edema at 3 to 30 mg/kg, ip preadministered with compound for 30 mins followed by MSU administration and measured for 6 hrs by plethysmometer; type: functional, organism-based; conditions: dose 3-30 mg/kg, time 6.5 hrs
[26] = Reactivity of the compound in phosphate buffer at pH 7.4 assessed as compound oxidation by measuring decrease in fluorescence spectra in presence of MPO, H2O2 and tyrosine by fluorescence microplate reader; type: physicochemical

Chain of Poly [ADP-ribose] polymerase 1 (Homo sapiens) (P09874 whole entry): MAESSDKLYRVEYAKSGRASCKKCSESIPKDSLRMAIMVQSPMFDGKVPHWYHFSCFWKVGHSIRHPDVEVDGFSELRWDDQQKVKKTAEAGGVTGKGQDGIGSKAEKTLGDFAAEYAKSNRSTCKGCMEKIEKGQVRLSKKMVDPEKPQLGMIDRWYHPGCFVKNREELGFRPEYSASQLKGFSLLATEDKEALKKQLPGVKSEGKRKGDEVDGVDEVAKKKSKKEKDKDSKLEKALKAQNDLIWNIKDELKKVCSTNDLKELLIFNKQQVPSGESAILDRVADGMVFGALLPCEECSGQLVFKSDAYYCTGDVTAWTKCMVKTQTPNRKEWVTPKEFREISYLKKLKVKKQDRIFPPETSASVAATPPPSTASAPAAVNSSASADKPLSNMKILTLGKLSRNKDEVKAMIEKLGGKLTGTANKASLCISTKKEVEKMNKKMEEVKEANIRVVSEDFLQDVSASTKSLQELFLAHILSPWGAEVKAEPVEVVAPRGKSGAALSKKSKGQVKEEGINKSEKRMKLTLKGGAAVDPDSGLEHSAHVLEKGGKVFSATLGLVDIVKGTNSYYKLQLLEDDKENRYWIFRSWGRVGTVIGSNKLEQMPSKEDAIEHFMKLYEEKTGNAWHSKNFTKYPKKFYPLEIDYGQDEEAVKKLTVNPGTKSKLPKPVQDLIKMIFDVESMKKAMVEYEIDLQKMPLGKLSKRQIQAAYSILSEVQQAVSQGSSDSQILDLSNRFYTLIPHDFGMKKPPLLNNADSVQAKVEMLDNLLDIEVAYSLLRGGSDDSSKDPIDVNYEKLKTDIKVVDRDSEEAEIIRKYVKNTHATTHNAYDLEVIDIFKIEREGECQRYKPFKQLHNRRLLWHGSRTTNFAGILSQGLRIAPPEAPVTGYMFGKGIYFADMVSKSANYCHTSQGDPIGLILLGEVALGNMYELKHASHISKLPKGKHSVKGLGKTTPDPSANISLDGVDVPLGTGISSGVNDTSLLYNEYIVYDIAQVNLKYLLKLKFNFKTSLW

With `N#CC1=C(N)Oc2c(c(=O)sc3ccccc23)C1c1ccc(F)cc1` (centres undefined) the inhibition [1] was “inactive”.

For `CCOC(=O)C(Cc1ccc(O)cc1)NC1=CC(=O)C(=O)c2ccccc21` (centres undefined), the inhibition [1] was “inactive”.

In the case of `COc1ccc(C(=O)Nc2ccc(-c3nnc(S)o3)cc2)cc1`, the inhibition [2] is reported as “inactive”, the Activity [3] is reported as “Active” and the inhibition [4] is reported as “inactive”. For the same compound, the inhibition [5] was “inactive”.

With `Cc1cccc(Nc2ccccc2C(=O)O)c1C` the Activity [6] was “Active”, the Activity [7] was “inactive” and the Activity [8] was “inactive”. The Activity [9] was “inactive”.

In the case of `CN1CCc2nc3sc(C(=O)Nc4cccc(C#N)c4)c(N)c3cc2C1`, the inhibition [2] is reported as “inactive”, the Activity [3] is reported as “inactive” and the inhibition [4] is reported as “Active”. For the same compound, the inhibition [5] was “Active”, the inhibition [10] was “Active” and the inhibition [11] was “Active”. The Activity [12] was “Toxic”, the Activity [13] was “Active” and the Activity [14] was “Active”. For the same compound, the Activity [7] was “inactive”, the Activity [8] was “inactive” and the Activity [9] was “inactive”. For the same compound, the Drug metabolism [15] was “Metabolite_Notdetected”, the Drug metabolism [16] was “Metabolite_Notdetected” and the Drug metabolism [17] was “Metabolite_Detected”. For the same compound, the Drug metabolism [18] was “Metabolite_Detected” and the Drug metabolism [19] was “Metabolite_Detected”.

In the case of `CCCOc1ccc(C2C(C#N)=C(N)SC(N)=C2C#N)cc1OC`, the Activity [3] is reported as “Active”.

In the case of `CCCc1cc(=O)[nH]c(=S)[nH]1`, the inhibition [4] is reported as “Active”, the inhibition [5] is reported as “Active” and the inhibition [10] is reported as “Active”. The inhibition [11] was “Active”.

In the case of `CCc1c(O)[nH]c2nc3ccccc3n2c1=O`, the Activity [20] is reported as “Active”, the Activity [21] is reported as “inactive” and the Activity [7] is reported as “inactive”. For the same compound, the Activity [8] was “inactive” and the Activity [9] was “inactive”.

With `COc1cc(/C=N/NC(=O)c2ccoc2C)ccc1OCCN1CCCCC1` the inhibition [1] was “inactive”.

In the case of `CN(C)CCc1c(C#N)c(=O)ncn1Cc1ccccc1`, the inhibition [1] is reported as “inactive” and the inhibition [2] is reported as “inactive”.

With `CCCNc1ncnc2cc(-c3ccc(OC)cc3)sc12` the inhibition [1] was “inactive” and the inhibition [2] was “inactive”.

With `O=c1c2cnc3cc(C(F)(F)F)ccc3c2sc2nncn12` the inhibition [1] was “inactive” and the inhibition [2] was “inactive”.

With `Nc1cc2c3c(cccc3c1)C(=O)N(N)C2=O` the Activity [3] was “inactive”, the inhibition [22] was “Active” and the inhibition [4] was “Active”. The inhibition [5] was “Active”, the inhibition [10] was “Active” and the inhibition [11] was “Active”. For the same compound, the inhibition [23] was “inactive”, the Activity [24] was “Non-Toxic” and the Activity [25] was “Active”. For the same compound, the Activity [7] was “inactive”, the Drug metabolism [15] was “Metabolite_Notdetected” and the Drug metabolism [16] was “Metabolite_Notdetected”. For the same compound, the Drug metabolism [17] was “Metabolite_Notdetected”, the Drug metabolism [18] was “Metabolite_Notdetected” and the Drug metabolism [26] was “Metabolite_Notdetected”.
